Assay results taken from US9598407B2, “Antibacterial piperidinyl substituted 3,4-dihydro-1H-[1,8]naphthyridinones” (JANSSEN SCIENCES IRELAND UC, priority 2011, dated 2017).

Experiments:
[1] = target: S. aureus ATCC 29213 FabI (Staphylococcus aureus (strain MRSA252), UniProt Q6GI75); experiment: Staphylococcus aureus FabI enzyme inhibition assay; assay type: biochemical; details: 30 minutes at room temperature, pH 6.5
Protocol: D.1 FabI Enzyme Inhibition: Staphylococcus aureus FabI Enzyme Inhibition Assay
FabI enzyme inhibition assays were carried out in half-area, 384-well microtitre plates. Compounds were evaluated in 40-μl assay mixtures containing 100 mM NaADA, pH 6.5 (ADA=N-[2-acetamido]-2iminodiacetic acid), 250 μM crotonoyl-CoA, 625 μM NADH and 50 μg/ml S. aureus ATCC 29213 FabI Inhibitors were typically varied over the range of 50 to 0.39 μM. The reaction mixtures were incubated for 30 minutes at room temperature and the reaction was stopped by adding 200 mM Tris buffer (pH 9.0) to create a pH-shift. The consumption of NADH was monitored by measuring the change in absorbance at […]. By comparing sample readings to those of negative (absence of compound) and positive (absence of enzyme) controls, the percent inhibition of enzymatic activity of the compounds was determined A best-fit curve is fitted by a minimum of squares method. From this an IC50-value (expressed in μg/ml), resulting in 50% inhibition of enzymatic activity, was obtained.

[2] = system: Staphylococcus aureus ATCC 29213; experiment: Antibacterial susceptibility testing, IC90 determination (STA 361.159); assay type: cell-based; details: STA ATCC 29213; 90% inhibitory concentration for bacterial growth
Protocol: D.2 In Vitro Method for Testing Compounds for Antibacterial Activity Against Various Bacterial Strains Preparation of Bacterial Suspensions for Susceptibility Testing
(§1) The following bacteria were used: Staphylococcus aureus ATCC 29213, methicillin-resistant Staphylococcus aureus (MRSA) ATCC 700788 and Escherichia coli ATCC 35218. The bacteria used in this study were grown overnight in flasks containing 100 ml Mueller-Hinton broth (Difco cat. nr. 0757-17) in sterile de-ionized water, with shaking, at 37° C. Stocks were store at −70° C. until use.
(§2) Bacteria were incubated on a tryptic soy agar plate containing 5% sheep blood (Becton Dickinson cat. nr. 254053) for 18-24 hours at 35° C. in aerobic conditions (first passage). For the second passage, fresh Mueller-Hinton broth is inoculated with 5-10 colonies and grown overnight at 35° C. until turbidity (reaching log-phase) in aerobic conditions is reached. The bacterial suspension is then adjusted to 0.5 McFarland density and further diluted 1:100 in Mueller Hinton broth medium. This is used as inoculum.
Antibacterial Susceptibility Testing: IC90 Determination
(§3) MIC assays were performed by the broth microdilution method in a 96-well format (flat-bottom microtitre plates) with a final volume of 0.1 ml Mueller Hinton broth containing two-fold serial dilutions of compounds and inoculated with 5×10^5 CFU/ml of bacteria (standard inoculum size according to CLSI guidelines). Inhibitors are typically varied over the range of 63 to 0.49 μM. The final DMSO concentration in the assay was 1.25% (maximum tolerable DMSO concentration=6%). In the assays where the effect of human serum on the activity of the compounds against S. aureus was tested, human serum was added at a final concentration of 10%. The plates were incubated at 35° C. for 16-20 hours. At the end of incubation the bacterial growth was quantified fluorometrically. For this, resazurin was added to all wells and the plates were re-incubated. The incubation time is dependent on the type of bacteria. A change in color from blue to pink indicated the growth of bacteria. The fluorescence was read in computer-controlled fluorometer (Fluoroskan Ascent FL, Labsystems) at an excitation wavelength 540 nm and an emission wavelength of 590 nm. The % growth inhibition achieved by the compounds was calculated according to standard methods. The IC90 (expressed in μg/ml) was defined as the 90% inhibitory concentration for bacterial growth. A panel of reference compounds were simultaneously tested for QC approval.

S. aureus = experiment: Antibacterial susceptibility testing, IC90 with 10% human serum (STA + 10% HS 361.169); assay type: cell-based, Staphylococcus aureus; details: S. aureus with 10% human serum
Protocol: as §1, §2, §3
The results are depicted in the table D2 below (STA+10% HS).

Human HelaM cells = experiment: Cytotoxicity MTT assay (TOX HELAM 222.125); assay type: cell-based; details: 72 hours
Protocol: Cytotoxicity of the compounds was evaluated using the MTT assay. Human HelaM cells grown in 96-well plates were exposed to serial dilutions of the tested compounds (final volume of 0.2 ml) and incubated for 72 hours at 37° C. and 5% CO2 Inhibitors are typically varied over the range of 25 to 0.8 μM. The final DMSO concentration in the assay is 0.5%. MTT (3-(4,5-Dimethylthiazol-2-yl)-2,5-diphenyltetrazolium bromide, a tetrazole) was added and reduced to purple formazan only in living cells. Solubilization of the formazan crystals was achieved by adding 100 μl 2-propanol. Cell viability was determined by measuring the absorbance of the reduced formazan, giving a purple color, at 540 nm and 690 nm. The absorbance measured at 690 nm was automatically subtracted from the absorbance at 540 nm, to eliminate the effects of non-specific absorption. The percent cytotoxicity achieved by the compounds was calculated according to standard methods. Cytotoxicity is reported as CC50, the concentration that causes a 50% reduction in cell viability.
The results are depicted in the table D2 below (TOX HELAM).

| SMILES | FabI IC50 [1] [µg/mL] | STA (361.159) IC90 [2] [µg/mL] | STA + 10% HS (361.169) IC90 (S. aureus) [µg/mL] | TOX HELAM (222.125) CC50 (Human HelaM cells) [µg/mL] |
| --- | --- | --- | --- | --- |
| O=C1CCc2cc(/C=C/C(=O)N3CC=C(c4cccnc4)CC3)cnc2N1 [compound 18] | 0.67 |  |  |  |
| O=C1CCc2cc(/C=C/C(=O)N3CCN(c4ccccc4)CC3)cnc2N1 [compound 25] | 1.48 |  |  |  |
| O=C1CCc2cc(/C=C/C(=O)N3CCC(Cc4ccccn4)CC3)cnc2N1 [compound 35] | 0.48 | 5.14 | 3.94 | >9.456 |
| O=C1CCc2cc(/C=C/C(=O)N3CC=C(c4cc5ccccc5o4)CC3)cnc2N1 [compound 17] | 1.91 |  |  |  |
| Cc1ccc(-c2ccccc2)n1CC1CCN(C(=O)/C=C/c2cnc3c(c2)CCC(=O)N3)CC1 [compound 42] | 10.18 |  |  |  |
| O=C1CCc2cc(/C=C/C(=O)N3CC=C(c4ccccc4)CC3)cnc2N1 [compound 7] | 0.41 | 2.07 | 2.54 | >9.028 |
| COc1ccccc1C1=CCN(C(=O)/C=C/c2cnc3c(c2)CCC(=O)N3)CC1 [compound 2] | 0.32 | 1.97 | 2.99 | >9.783 |
| COc1ccccc1C1CCN(C(=O)/C=C/c2cnc3c(c2)CCC(=O)N3)CC1 [compound 13] | 0.53 |  |  |  |
| COc1ccccc1C1=CCCN(C(=O)/C=C/c2cnc3c(c2)CCC(=O)N3)C1 [compound 21] | 0.80 |  |  |  |
| CC1CN(C(=O)/C=C/c2cnc3c(c2)CCC(=O)N3)CC=C1c1ccccc1 (centres unmarked) [compound 27] | 0.57 | 6.13 | 21.99 | >9.381 |
| O=C1CCc2cc(/C=C/C(=O)N3CCC(O)(c4ccc(Cl)cc4)CC3)cnc2N1 [compound 11] | 0.80 |  |  |  |
| O=C1CCc2cc(/C=C/C(=O)N3CCCCC3)cnc2N1 [compound 26] | 2.73 |  |  |  |
| O=C1CCc2cc(/C=C/C(=O)N3CCC(Cn4ccc5ccccc54)CC3)cnc2N1 [compound 39] | 2.74 |  |  |  |
| O=C1CCc2cc(/C=C/C(=O)N3CC=C(c4ccc5c(c4)OCO5)CC3)cnc2N1 [compound 8] | 0.53 |  |  |  |
| O=C1CCc2cc(/C=C/C(=O)N3CCC(Cc4ccc5ccccc5n4)CC3)cnc2N1 [compound 41] | 3.39 |  |  |  |
| O=C1CCc2cc(/C=C/C(=O)N3CCc4ccccc4C3)cnc2N1 [compound 3] | 0.48 | 8.67 | 10.79 | >8.374 |
| O=C1CCc2cc(/C=C/C(=O)N3CCC(Cc4coc5cc(F)ccc45)CC3)cnc2N1 [compound 31] | 0.79 |  |  |  |
| COc1ccccc1CC1=CCN(C(=O)/C=C/c2cnc3c(c2)CCC(=O)N3)CC1 [compound 14] | 1.06 | 6.93 | 13.06 | >10.1352 |
| O=C1CCc2cc(/C=C/C(=O)N3CC=C(c4ccoc4)CC3)cnc2N1 [compound 10] | 0.48 | 10.43 | 20.34 | >8.776 |

| SMILES | FabI IC50 [1] [µg/mL] | STA (361.159) IC90 [2] [µg/mL] | STA + 10% HS (361.169) IC90 (S. aureus) [µg/mL] | TOX HELAM (222.125) CC50 (Human HelaM cells) [µg/mL] |
| --- | --- | --- | --- | --- |
| O=C1CCc2cc(/C=C/C(=O)N3CC=C(c4ccco4)CC3)cnc2N1 [compound 9] | 0.34 | 2.91 | 2.65 | >8.776 |
| O=C1CCc2cc(/C=C/C(=O)N3CCC(Cc4ccccc4)CC3)cnc2N1 [compound 12] | 0.31 | 1.19 | 2.09 | >9.431 |
| O=C1CCc2cc(/C=C/C(=O)N3CCC(CCOc4ccc(F)cc4)CC3)cnc2N1 [compound 30] | 1.34 |  |  |  |
| O=C1CCc2cc(/C=C/C(=O)N3CCC(C(=O)c4ccccc4)CC3)cnc2N1 [compound 6] | 1.74 |  |  |  |
| O=C1CCc2cc(/C=C/C(=O)N3CCC(COc4ccc(F)cc4)CC3)cnc2N1 [compound 34] | 0.47 | 9.94 | 12.51 | >10.2852 |
| O=C1CCc2cc(/C=C/C(=O)N3CCC(Cc4nc5ccccc5s4)CC3)cnc2N1 [compound 32] | 1.72 |  |  |  |
| O=C1CCc2cc(/C=C/C(=O)N3CCC(CCOc4ccccc4)CC3)cnc2N1 [compound 29] | 1.00 |  |  |  |
| O=C1CCc2cc(/C=C/C(=O)N3CC=C(c4ccccc4Cl)CC3)cnc2N1 [compound 16] | 0.58 | 3.31 | 8.52 | 8.04 |
| O=C1CCc2cc(/C=C/C(=O)N3CC=CCC3)cnc2N1 [compound 15] | 3.57 |  |  |  |
| O=C1CCc2cc(/C=C/C(=O)N3CCC(CC4CCCS4)CC3)cnc2N1 (centres unmarked) [compound 36] | 0.61 | 8.43 | 11.38 | >9.684 |
| O=C1CCc2cc(/C=C/C(=O)N3CCC(Cn4cncn4)CC3)cnc2N1 [compound 40] | 1.43 |  |  |  |
| COc1ccncc1C1=CCN(C(=O)/C=C/c2cnc3c(c2)CCC(=O)N3)CC1 [compound 20] | 0.78 | 13.23 | 16.85 | >9.808 |
| O=C1CCc2cc(/C=C/C(=O)N3CCC(c4ccccc4)CC3)cnc2N1 [compound 4] | 0.29 | 4.99 | 4.60 | >9.079 |
| O=C1CCc2cc(/C=C/C(=O)N3CCCC(Oc4ccccc4)C3)cnc2N1 (centres unmarked) [compound 1] | 3.52 |  |  |  |
| O=C1CCc2cc(/C=C/C(=O)N3CC=C(c4cccc(C(F)(F)F)c4)CC3)cnc2N1 [compound 19] | 1.12 |  |  |  |
| O=C1CCc2cc(/C=C/C(=O)N3CCC(Cn4cnnc4)CC3)cnc2N1 [compound 38] | >7.31 |  |  |  |
| O=C1CCc2cc(/C=C/C(=O)N3CCN(Cc4ccccc4)CC3)cnc2N1 [compound 24] | 7.17 |  |  |  |
| COc1ccc(C2=CCN(C(=O)/C=C/c3cnc4c(c3)CCC(=O)N4)CC2)cc1 [compound 23] | 0.85 |  |  |  |
| O=C1CCc2cc(/C=C/C(=O)N3CCC(Oc4ccccc4)CC3)cnc2N1 [compound 28] | 0.93 |  |  |  |
